Test results: the supplement of paper PMC11451515

Tested on: SEM cells
Assay: cell viability relative to DMSO control; higher = less cytotoxic
Conditions: 48 h
Procedure, shortened: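 Library compounds in DMSO were pin-dosed in an 11-point threefold series (47 μM to 0.79 nM) onto leukemia cells in 1536-well plates (5 μl). Plates held 500 cells/well of NOMO1 or SEM or 1000 cells/well of P12-Ichikawa, each adapted for at least four passages in each medium. Luminescence was read with CellTiter-Glo One after 48 h at 37°C. Viability means the per-plate percentage relative to DMSO wells, using cell-free wells as background.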

[1] = HPLM + 10% dialyzed FBS, 0.000781 µM
[2] = HPLM + 10% dialyzed FBS, 0.00234 µM
[3] = HPLM + 10% dialyzed FBS, 0.00702 µM
[4] = HPLM + 10% dialyzed FBS, 0.0211 µM
[5] = HPLM + 10% dialyzed FBS, 0.0632 µM
[6] = HPLM + 10% dialyzed FBS, 0.19 µM
[7] = HPLM + 10% dialyzed FBS, 0.569 µM
[8] = HPLM + 10% dialyzed FBS, 1.71 µM
[9] = HPLM + 10% dialyzed FBS, 5.12 µM
[10] = HPLM + 10% dialyzed FBS, 15.4 µM
[11] = HPLM + 10% dialyzed FBS, 46.1 µM
[12] = RPMI 5 mM glucose + 10% dialyzed FBS, 0.000781 µM
[13] = RPMI 5 mM glucose + 10% dialyzed FBS, 0.00234 µM
[14] = RPMI 5 mM glucose + 10% dialyzed FBS, 0.00702 µM
[15] = RPMI 5 mM glucose + 10% dialyzed FBS, 0.0211 µM
[16] = RPMI 5 mM glucose + 10% dialyzed FBS, 0.0632 µM
[17] = RPMI 5 mM glucose + 10% dialyzed FBS, 0.19 µM
[18] = RPMI 5 mM glucose + 10% dialyzed FBS, 0.569 µM
[19] = RPMI 5 mM glucose + 10% dialyzed FBS, 1.71 µM
[20] = RPMI 5 mM glucose + 10% dialyzed FBS, 5.12 µM
[21] = RPMI 5 mM glucose + 10% dialyzed FBS, 15.4 µM
[22] = RPMI 5 mM glucose + 10% dialyzed FBS, 46.1 µM
[23] = RPMI 5 mM glucose + 10% FBS, 0.000781 µM
[24] = RPMI 5 mM glucose + 10% FBS, 0.00234 µM
[25] = RPMI 5 mM glucose + 10% FBS, 0.00702 µM
[26] = RPMI 5 mM glucose + 10% FBS, 0.0211 µM
[27] = RPMI 5 mM glucose + 10% FBS, 0.0632 µM
[28] = RPMI 5 mM glucose + 10% FBS, 0.19 µM
[29] = RPMI 5 mM glucose + 10% FBS, 0.569 µM
[30] = RPMI 5 mM glucose + 10% FBS, 1.71 µM
[31] = RPMI 5 mM glucose + 10% FBS, 5.12 µM
[32] = RPMI 5 mM glucose + 10% FBS, 15.4 µM
[33] = RPMI 5 mM glucose + 10% FBS, 46.1 µM

Structure (SMILES)	cell viability [1]	cell viability [2]	cell viability [3]	cell viability [4]	cell viability [5]	cell viability [6]	cell viability [7]	cell viability [8]	cell viability [9]	cell viability [10]	cell viability [11]	cell viability [12]	cell viability [13]	cell viability [14]	cell viability [15]	cell viability [16]	cell viability [17]	cell viability [18]	cell viability [19]	cell viability [20]	cell viability [21]	cell viability [22]	cell viability [23]	cell viability [24]	cell viability [25]	cell viability [26]	cell viability [27]	cell viability [28]	cell viability [29]	cell viability [30]	cell viability [31]	cell viability [32]	cell viability [33]
Cc1nn(C)c(COc2ccc(N3CCN([S+](=O)([O-])N(C)C)CC3)cc2)c1-c1cccc2c(CCCOc3cccc4ccccc34)c(C(=O)O)n(CCN3CCOCC3)c12	86%	82.9%	102%	99.8%	105%	100%	101%	118%	96.2%	112%	51.7%	97.3%	106%	105%	106%	110%	91.4%	123%	114%	71%	117%	21.4%	–	–	–	–	–	–	–	–	–	–	–
CN(C)C1=CC(=CC=C1)C\2=C\3C(=O)N(NC3=C/C(=O)N2C)C4=CC=CC=C4Cl	98.5%	105%	111%	107%	102%	103%	98.1%	16.9%	5.63%	5.04%	6.91%	109%	109%	136%	116%	104%	124%	95.9%	7.24%	5.43%	6.87%	7.46%	–	–	–	–	–	–	–	–	–	–	–
CC(C)(F)C[C@H](N[C@@H](c1ccc(-c2ccc([S+](C)(=O)[O-])cc2)cc1)C(F)(F)F)C(=O)NC1(C#N)CC1	88.3%	93.8%	93.1%	96.1%	95.9%	91%	96.3%	97.5%	104%	95.9%	91.6%	105%	117%	124%	107%	119%	126%	108%	114%	115%	123%	103%	90.4%	116%	112%	117%	114%	105%	93.1%	109%	96.5%	90.3%	85.8%
CN1C(=O)C(=C\C2=C1N=C(NC3=CC=CC(=C3)C(O)=O)N=C2)/C4=C(Cl)C=CC=C4Cl	106%	114%	108%	112%	110%	116%	107%	110%	104%	67.4%	31.9%	106%	118%	136%	130%	121%	115%	100%	116%	97%	73.1%	37.8%	103%	124%	132%	114%	125%	123%	90.9%	101%	84.2%	65.6%	25%
[O-]C(=O)C/1=N/C(=O)NC(=O)N1	95.8%	99.2%	93.4%	111%	85.1%	20.6%	94.8%	99.8%	100%	91.6%	84.3%	97.1%	100%	101%	106%	100%	34.7%	96.8%	89.8%	104%	88.7%	91.8%	93.7%	99.6%	95.6%	93.6%	87.4%	34.2%	90.8%	83.7%	100%	88.1%	83.7%
CC1(CN2CCC(n3c(=O)[nH]c4ccccc43)CC2)OCc2ccccc2-n2cccc21 (stereo unspecified)	102%	109%	111%	100%	103%	100%	107%	105%	106%	68.1%	76.9%	106%	81.4%	97.6%	105%	113%	94%	121%	99.2%	105%	79.6%	96.9%	88.6%	90.5%	89%	111%	106%	95%	103%	100%	94.8%	79.3%	66.8%
ClC1=CC=C2N/C3=N/C(=O)CN3CC2=C1Cl	123%	124%	120%	134%	126%	119%	132%	138%	125%	115%	105%	–	–	–	–	–	–	–	–	–	–	–	–	–	–	–	–	–	–	–	–	–	–
CC(C)(S)[C@@H](N)C(=O)O	75.7%	94.7%	96%	109%	72.8%	108%	90.5%	110%	97.3%	104%	20%	91.1%	99.8%	105%	99.4%	84.9%	103%	104%	107%	122%	116%	16.1%	75%	94.5%	100%	100%	64.8%	110%	110%	107%	113%	107%	13.3%
CC[N+](CC)(CC)CCOc1cccc(OCC[N+](CC)(CC)CC)c1OCC[N+](CC)(CC)CC	–	–	–	–	–	–	–	–	–	–	–	117%	137%	121%	112%	144%	144%	122%	115%	128%	122%	128%	134%	118%	124%	110%	123%	131%	116%	119%	126%	123%	111%
CC(C)=CCC/C(C)=C/CC/C(C)=C/CSc1ccccc1C(=O)O	97.5%	116%	111%	97.3%	93.2%	81.2%	80%	67.3%	58.3%	30.3%	8.4%	94.6%	105%	84.7%	106%	97.8%	99.1%	74.8%	71.2%	62.5%	33.8%	8.59%	118%	124%	111%	119%	117%	106%	96.6%	71.8%	62.4%	22.3%	2.67%
Cc1cc(O)c2c(c1)C(=O)c1cccc(O)c1C2=O	99.4%	121%	126%	100%	122%	133%	135%	135%	116%	70.5%	71.6%	117%	111%	124%	109%	137%	140%	134%	110%	123%	81.2%	64.7%	–	–	–	–	–	–	–	–	–	–	–
NC[C@@H]1O[C@H](O[C@H]2[C@@H](O)[C@H](O[C@@H]3[C@@H](O)[C@H](N)C[C@H](N)[C@H]3O[C@H]3O[C@H](CN)[C@@H](O)[C@H](O)[C@H]3N)O[C@@H]2CO)[C@H](N)[C@@H](O)[C@@H]1O.O=S(=O)(O)O.O=S(=O)(O)O.O=S(=O)(O)O	104%	99.7%	103%	106%	98.4%	99.4%	104%	91%	98.7%	105%	106%	109%	115%	116%	113%	90.7%	104%	115%	105%	108%	105%	100%	92.9%	105%	110%	98.8%	69.1%	101%	101%	102%	104%	94%	105%
CC1=C(/C=C/C(C)=C/C=C/C(C)=C\C(=O)O)C(C)(C)CCC1	82.8%	84.8%	67.9%	103%	98.1%	96.7%	101%	91.5%	44.3%	80.1%	78.5%	68.1%	78.3%	64.2%	93.2%	95.3%	107%	83.4%	75.8%	41.6%	77.8%	85.8%	85%	93.2%	77.5%	112%	99.5%	107%	108%	107%	46.1%	98.2%	106%
C[C@@H]1O[C@@H](O[C@H]2C[C@@H](O)[C@]3(CO)[C@H]4[C@H](O)C[C@]5(C)[C@@H](C6=CC(=O)OC6)CC[C@]5(O)[C@@H]4CC[C@]3(O)C2)[C@H](O)[C@H](O)[C@H]1O	85.4%	99.6%	93.6%	85.8%	17.8%	9.08%	7.03%	5.97%	7.25%	6.63%	6.23%	104%	100%	97.3%	98.3%	60%	12.6%	7.03%	6.93%	8.44%	7.07%	7.5%	109%	113%	114%	106%	109%	14.9%	7.93%	6.18%	8%	7.1%	6.23%
CCOC(=O)N1c2ccc(C(F)(F)F)cc2[C@@H](N(Cc2cc(C(F)(F)F)cc(C(F)(F)F)c2)C(=O)OC)C[C@H]1CC	121%	111%	124%	124%	117%	113%	105%	113%	109%	125%	109%	118%	108%	118%	113%	129%	113%	118%	117%	120%	127%	116%	104%	108%	115%	121%	116%	110%	103%	109%	109%	103%	97.3%
Clc1cccc(-n2nnnc2NCc2ccccc2Oc2ccccn2)c1Cl	102%	123%	124%	133%	123%	131%	128%	125%	127%	139%	138%	116%	149%	125%	140%	113%	126%	149%	129%	148%	147%	119%	–	–	–	–	–	–	–	–	–	–	–
